Results reported in ChEMBL document CHEMBL1201862, “PubChem BioAssay data set” (2004).
The source made the active and inactive calls.

Legend:
[1] = molecular target: T1, Zinc finger protein mex-5 (Caenorhabditis elegans, UniProt Q9XUB2); test: MEX-5/TCR-2 RNA interaction inhibitors, dose response, biochemical, C. elegans, fluorescence polarization (AID 1960)
T1 sequence (Q9XUB2 whole entry): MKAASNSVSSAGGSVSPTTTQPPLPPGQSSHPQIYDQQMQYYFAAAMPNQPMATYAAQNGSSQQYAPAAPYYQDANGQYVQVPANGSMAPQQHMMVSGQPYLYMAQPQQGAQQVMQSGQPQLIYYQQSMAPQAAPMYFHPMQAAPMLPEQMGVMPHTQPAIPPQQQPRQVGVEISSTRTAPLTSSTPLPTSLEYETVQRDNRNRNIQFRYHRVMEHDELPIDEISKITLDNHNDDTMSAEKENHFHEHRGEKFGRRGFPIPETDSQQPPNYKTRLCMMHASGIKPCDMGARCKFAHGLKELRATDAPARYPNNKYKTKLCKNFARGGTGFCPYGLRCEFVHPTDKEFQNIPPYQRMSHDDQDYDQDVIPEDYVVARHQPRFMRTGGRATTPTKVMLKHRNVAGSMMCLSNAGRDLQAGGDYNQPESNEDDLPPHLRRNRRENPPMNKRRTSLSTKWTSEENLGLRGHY

[2] = molecular target: T2, RNA-binding protein pos-1 (Caenorhabditis elegans, UniProt G5EF15); test: inhibitors of POS-1/mex-3 RNA binding, dose response, biochemical, fluorescence polarization (AID 1964);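 also: purified POS-1 fused to maltose binding protein made in E. coli; potency of compounds blocking POS-1 binding to fluorescent RNA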
T2 sequence (G5EF15 whole entry): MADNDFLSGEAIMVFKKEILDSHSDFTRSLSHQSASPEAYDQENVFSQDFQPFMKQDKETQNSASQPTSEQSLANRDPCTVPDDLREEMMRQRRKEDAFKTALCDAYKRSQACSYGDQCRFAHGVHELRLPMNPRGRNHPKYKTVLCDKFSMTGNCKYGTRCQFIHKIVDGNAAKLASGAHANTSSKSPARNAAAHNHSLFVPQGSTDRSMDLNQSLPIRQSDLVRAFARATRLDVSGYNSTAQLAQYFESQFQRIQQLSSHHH

Genome polyprotein = Genome polyprotein (dengue virus type 2, UniProt P29990); test: Dengue-2 NS5 methyltransferase inhibitors, primary screen, biochemical, confirmation dose response (AID 588689); assay type: functional
[3] = molecular target: T3, Rac GTPase-activating protein 1 (Homo sapiens, UniProt Q9H0H5); test: MgcRacGAP GTPase-activating activity inhibitors, confirmation, biochemical, ADP Hunter fluorescence, primary and confirmatory (AID 624330); assay type: functional
T3 sequence (Q9H0H5 whole entry): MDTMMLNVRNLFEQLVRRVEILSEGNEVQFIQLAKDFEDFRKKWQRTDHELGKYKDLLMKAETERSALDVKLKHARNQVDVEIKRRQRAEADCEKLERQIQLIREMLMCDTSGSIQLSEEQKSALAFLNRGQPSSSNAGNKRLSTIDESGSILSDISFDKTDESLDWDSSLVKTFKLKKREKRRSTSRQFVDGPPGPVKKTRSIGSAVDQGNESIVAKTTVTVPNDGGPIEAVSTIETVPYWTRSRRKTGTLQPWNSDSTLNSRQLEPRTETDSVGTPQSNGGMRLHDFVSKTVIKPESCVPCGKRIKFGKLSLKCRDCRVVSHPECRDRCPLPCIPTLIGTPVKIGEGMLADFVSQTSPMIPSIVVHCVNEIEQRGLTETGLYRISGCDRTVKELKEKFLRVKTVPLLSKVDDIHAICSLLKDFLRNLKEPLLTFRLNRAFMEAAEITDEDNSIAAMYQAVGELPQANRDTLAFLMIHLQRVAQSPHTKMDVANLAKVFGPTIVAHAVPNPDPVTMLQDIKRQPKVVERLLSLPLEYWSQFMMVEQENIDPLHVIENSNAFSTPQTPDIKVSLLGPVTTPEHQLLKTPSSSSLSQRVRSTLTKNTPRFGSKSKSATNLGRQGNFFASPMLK

Interleukin-8 = molecular target: T4, Interleukin-8 (Homo sapiens, UniProt P10145); test: Dose Response confirmation of uHTS small molecule hits for cystic fibrosis induced NFkb Inhibitors in a PAF-induced IL8 counterscreen.; assay type: functional; settings: read-out: IC50_Mean
T4 sequence (P10145 whole entry): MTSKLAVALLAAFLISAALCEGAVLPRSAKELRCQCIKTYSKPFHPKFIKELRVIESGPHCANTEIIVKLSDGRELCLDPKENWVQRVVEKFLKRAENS

Paired box protein Pax-8 = Paired box protein Pax-8 (Homo sapiens, UniProt Q06710); test: inhibitors of PAX8-driven TPO luciferase reporter, dose response, RMG-I cells, cherry-pick (AID 687027); assay type: functional, cell-based;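 also: luciferase reporter driven by Pax8 target thyroperoxidase promoter measured by SteadyGlo luminescence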
[4] = molecular target: T5, High affinity choline transporter 1 (Homo sapiens, UniProt Q9GZV3); test: CHT inhibitors, dose response, cell-based, 10-point CRC, membrane potential dye (AID 588401); assay type: functional;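 also: membrane potential dye fluorescence of choline-evoked depolarization via CHT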
T5 sequence (Q9GZV3 whole entry): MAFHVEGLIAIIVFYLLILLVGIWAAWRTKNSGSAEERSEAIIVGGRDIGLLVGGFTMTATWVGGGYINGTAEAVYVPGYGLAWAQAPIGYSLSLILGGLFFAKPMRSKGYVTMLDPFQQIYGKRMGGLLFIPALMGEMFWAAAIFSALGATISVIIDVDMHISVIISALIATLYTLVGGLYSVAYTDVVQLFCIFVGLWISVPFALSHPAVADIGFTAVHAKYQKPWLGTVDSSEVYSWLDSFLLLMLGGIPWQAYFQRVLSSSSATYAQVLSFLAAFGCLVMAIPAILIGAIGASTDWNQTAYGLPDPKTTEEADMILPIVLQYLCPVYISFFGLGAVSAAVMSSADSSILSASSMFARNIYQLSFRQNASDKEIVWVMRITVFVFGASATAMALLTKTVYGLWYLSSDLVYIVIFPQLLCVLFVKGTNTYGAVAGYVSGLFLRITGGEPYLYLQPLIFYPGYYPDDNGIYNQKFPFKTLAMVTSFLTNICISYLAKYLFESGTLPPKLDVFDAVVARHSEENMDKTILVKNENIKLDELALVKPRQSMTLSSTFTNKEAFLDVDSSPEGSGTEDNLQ

[5] = molecular target: T5, High affinity choline transporter 1; test: CHT inhibitors, dose response, cell-based, 5-point CRC, membrane potential dye (AID 504840); assay type: functional
[6] = molecular target: DNA dC->dU-editing enzyme APOBEC-3G (Homo sapiens, UniProt Q9HC16); assay type: functional;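 also: Dose-response counterscreen measuring inhibition of APOBEC3G DNA deaminase activity, run while confirming APOBEC3A inhibitors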
[7] = molecular target: DNA dC->dU-editing enzyme APOBEC-3A (Homo sapiens, UniProt P31941); test: Dose Response confirmation of small molecule APOBEC3A DNA Deaminase Inhibitors via a fluorescence-based single-stranded DNA deaminase assay. [Related pubchem assays (depositor defined):AID493011, AID493024]; assay type: functional
[8] = HEp-2 cell cytotoxicity, dose response, cytotoxicity control for RSV inhibitor project, HTS (AID 2410); assay type: functional; settings: human respiratory syncytial virus
Cysteine protease ATG4B = molecular target: T6, Cysteine protease ATG4B (Homo sapiens, UniProt Q9Y4P1); assay type: functional;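 also: Fluorescence-based dose-response confirmation assay measuring inhibition of ATG4B activity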
T6 sequence (Q9Y4P1 whole entry): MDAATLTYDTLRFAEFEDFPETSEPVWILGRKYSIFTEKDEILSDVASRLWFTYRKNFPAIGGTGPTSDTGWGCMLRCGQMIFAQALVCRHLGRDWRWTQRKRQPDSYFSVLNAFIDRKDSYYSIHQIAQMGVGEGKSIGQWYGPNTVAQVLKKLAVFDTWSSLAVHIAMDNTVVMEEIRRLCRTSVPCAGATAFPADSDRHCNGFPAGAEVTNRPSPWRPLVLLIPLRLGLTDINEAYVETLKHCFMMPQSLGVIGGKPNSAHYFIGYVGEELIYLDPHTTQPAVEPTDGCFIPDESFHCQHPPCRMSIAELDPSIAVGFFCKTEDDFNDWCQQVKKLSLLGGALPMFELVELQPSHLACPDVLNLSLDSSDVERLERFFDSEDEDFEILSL

Phospholipase A2 = Phospholipase A2 (Homo sapiens, UniProt P04054); assay type: functional;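 also: confirmatory dose-response counterscreen on phospholipase A2, testing hits that came from an ultra-high-throughput screen for ATG4B inhibitors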
[9] = molecular target: Heat shock protein HSP 90-alpha (Homo sapiens, UniProt P07900); assay type: functional, organism-based
[10] = molecular target: T7, DNA repair protein RAD52 homolog (Homo sapiens, UniProt P43351); assay type: functional, biochemical
T7 sequence (P43351 whole entry): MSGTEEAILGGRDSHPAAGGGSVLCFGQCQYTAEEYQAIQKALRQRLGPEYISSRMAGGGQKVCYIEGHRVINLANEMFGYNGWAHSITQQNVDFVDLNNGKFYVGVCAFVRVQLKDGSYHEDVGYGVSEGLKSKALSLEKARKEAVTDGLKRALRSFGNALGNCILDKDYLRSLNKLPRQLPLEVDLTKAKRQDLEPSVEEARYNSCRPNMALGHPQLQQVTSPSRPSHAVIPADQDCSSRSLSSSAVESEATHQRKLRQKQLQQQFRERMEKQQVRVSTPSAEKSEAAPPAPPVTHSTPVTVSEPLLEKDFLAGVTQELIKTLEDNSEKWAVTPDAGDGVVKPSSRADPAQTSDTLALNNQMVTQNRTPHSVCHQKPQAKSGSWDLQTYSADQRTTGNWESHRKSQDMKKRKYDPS

[11] = molecular target: Dual specificity tyrosine-phosphorylation-regulated kinase 1A (Rattus norvegicus, UniProt Q63470); assay type: biochemical, Homo sapiens
H4 = test: Luminescence Cell-Based Dose Response HTS to Identify Activators of 5'UTR Stem-Loop Driven Prion Protein mRNA Translation in H4 Neuroglioblastoma Cells. [Related pubchem assays: 1829 (Project Summary), 1814 (Primary HTS)]; assay type: functional; settings: Homo sapiens
[12] = Luminescence Cell-Based Dose Response HTS to Identify Activators of Luciferase Translation or Activity in H4 […] Cells. [Related pubchem assays: 1829 (Project Summary), 1814 (Primary HTS)]; assay type: functional
[13] = Luminescence Cell-Based Dose Confirmation HTS to Identify Activators of 5'UTR Stem-Loop Driven Alpha-Synuclein mRNA Translation in H4 Neuroglioblastoma Cells. [Related pubchem assays: 1829 (Project Summary), 1814 (Primary HTS)]; assay type: functional
CHO = test: cytotoxicity in TLR9-MyD88 CHO cells, dose response, cytotoxicity control for TLR9-MyD88 binding inhibitor project, cell-based, luminescence (AID 588339); assay type: functional, hamster; settings: Cricetulus griseus;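 also: CHO cells stably coexpressing TLR9 and MyD88 fusions from primary screen; compound exposure lasted 48 hours before viability readout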
Beta Lactamase = Beta Lactamase (Pseudomonas aeruginosa, UniProt Q932Y6); test: beta-lactamase reporter inhibitor potency, dose response, artefact control for TLR9-MyD88 binding inhibitor project, BLA reporter cells, FRET fluorescence (AID 588341); assay type: cell-based;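 also: cell based assay in CHO-K1 cells stably expressing beta-lactamase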
[14] = Luminescence Cell-Based Dose Retest to Confirm Inhibitors of Cancer Stem Cells. [Related pubchem assays (depositor defined):AID2717, AID2721]; assay type: functional; settings: Homo sapiens
Streptococcus = test: Group A Streptococcus viability loss, dose response, counter-screen for streptokinase expression inhibitor project, luminescence, BacTiterGlo (AID 1915); assay type: functional, organism-based;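 also: potency for reduction of bacterial viability or growth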
[15] = system: Streptococcus sp. 'group A'; test: growth inhibition of control SK(-) GAS strain, dose response, counter-screen for streptokinase expression inhibitor project, luminescence, kanamycin, BacTiterGlo, confirmation (AID 1900); assay type: functional, organism-based

Chain of DNA dC->dU-editing enzyme APOBEC-3A (P31941 whole entry): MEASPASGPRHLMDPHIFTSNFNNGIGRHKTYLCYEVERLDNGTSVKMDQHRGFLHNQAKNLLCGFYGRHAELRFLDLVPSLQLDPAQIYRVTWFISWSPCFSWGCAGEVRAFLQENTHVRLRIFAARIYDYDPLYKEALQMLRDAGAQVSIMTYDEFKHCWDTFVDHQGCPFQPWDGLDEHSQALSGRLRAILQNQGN
Chain of Phospholipase A2 (P04054 whole entry): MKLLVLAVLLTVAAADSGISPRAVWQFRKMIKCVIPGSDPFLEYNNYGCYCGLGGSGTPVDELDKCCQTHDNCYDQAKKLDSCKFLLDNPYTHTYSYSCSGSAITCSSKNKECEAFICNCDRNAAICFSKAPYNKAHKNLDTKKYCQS
Chain of DNA dC->dU-editing enzyme APOBEC-3G (Q9HC16 whole entry): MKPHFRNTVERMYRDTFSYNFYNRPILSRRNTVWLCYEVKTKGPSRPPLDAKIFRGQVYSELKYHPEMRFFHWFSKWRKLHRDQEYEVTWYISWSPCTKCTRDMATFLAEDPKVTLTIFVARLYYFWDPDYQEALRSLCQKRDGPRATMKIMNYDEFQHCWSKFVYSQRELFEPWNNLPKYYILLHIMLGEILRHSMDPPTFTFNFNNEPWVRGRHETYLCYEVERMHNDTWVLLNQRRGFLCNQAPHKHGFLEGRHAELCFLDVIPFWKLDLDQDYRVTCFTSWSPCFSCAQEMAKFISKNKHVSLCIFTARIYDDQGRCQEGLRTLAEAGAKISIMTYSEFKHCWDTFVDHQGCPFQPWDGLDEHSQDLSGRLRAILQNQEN
Chain of Genome polyprotein (P29990 2492-3391 limits assumed): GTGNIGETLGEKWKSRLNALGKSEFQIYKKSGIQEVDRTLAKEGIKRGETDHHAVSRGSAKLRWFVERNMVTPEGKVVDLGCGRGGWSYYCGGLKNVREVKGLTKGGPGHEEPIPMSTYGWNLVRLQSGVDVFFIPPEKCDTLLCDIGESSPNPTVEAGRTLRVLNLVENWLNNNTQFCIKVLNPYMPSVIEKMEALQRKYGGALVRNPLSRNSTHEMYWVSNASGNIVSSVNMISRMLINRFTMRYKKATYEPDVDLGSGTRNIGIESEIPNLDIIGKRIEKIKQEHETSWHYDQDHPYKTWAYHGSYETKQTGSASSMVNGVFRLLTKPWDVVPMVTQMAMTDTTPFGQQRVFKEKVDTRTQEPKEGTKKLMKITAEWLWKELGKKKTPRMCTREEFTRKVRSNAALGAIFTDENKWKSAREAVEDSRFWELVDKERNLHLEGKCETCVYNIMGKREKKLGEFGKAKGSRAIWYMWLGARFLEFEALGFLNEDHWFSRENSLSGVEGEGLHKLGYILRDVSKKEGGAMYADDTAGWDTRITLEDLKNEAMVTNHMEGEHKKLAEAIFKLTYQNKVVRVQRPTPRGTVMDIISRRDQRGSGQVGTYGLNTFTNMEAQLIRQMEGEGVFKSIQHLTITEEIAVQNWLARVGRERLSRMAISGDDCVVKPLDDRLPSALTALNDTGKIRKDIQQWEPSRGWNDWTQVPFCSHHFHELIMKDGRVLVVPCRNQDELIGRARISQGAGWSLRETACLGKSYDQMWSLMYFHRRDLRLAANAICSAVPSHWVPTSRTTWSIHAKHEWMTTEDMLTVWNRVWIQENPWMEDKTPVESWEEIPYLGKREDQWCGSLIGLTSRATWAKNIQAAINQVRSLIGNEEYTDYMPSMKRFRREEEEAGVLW
Chain of Paired box protein Pax-8 (Q06710 whole entry): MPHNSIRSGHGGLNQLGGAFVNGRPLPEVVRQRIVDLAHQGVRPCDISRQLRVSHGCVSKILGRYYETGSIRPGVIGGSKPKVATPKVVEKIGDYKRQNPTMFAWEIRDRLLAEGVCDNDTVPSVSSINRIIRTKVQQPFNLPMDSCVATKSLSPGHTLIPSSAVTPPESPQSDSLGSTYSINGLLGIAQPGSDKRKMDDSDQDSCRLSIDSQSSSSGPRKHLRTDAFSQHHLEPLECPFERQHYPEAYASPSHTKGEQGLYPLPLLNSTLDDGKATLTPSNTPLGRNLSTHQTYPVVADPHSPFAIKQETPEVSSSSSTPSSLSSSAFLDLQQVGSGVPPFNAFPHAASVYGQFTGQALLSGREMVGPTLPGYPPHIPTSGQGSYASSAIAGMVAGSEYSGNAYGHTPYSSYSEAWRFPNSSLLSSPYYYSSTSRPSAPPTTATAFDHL
Chain of Beta Lactamase (Q932Y6 whole entry): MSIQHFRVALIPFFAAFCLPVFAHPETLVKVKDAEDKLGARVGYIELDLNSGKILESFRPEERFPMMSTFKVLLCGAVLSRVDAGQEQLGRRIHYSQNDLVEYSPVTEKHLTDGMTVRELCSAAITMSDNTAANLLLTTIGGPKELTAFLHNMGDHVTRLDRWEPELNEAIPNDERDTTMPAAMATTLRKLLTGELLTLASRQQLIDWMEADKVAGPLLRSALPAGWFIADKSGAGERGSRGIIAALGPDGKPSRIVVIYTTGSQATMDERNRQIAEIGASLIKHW

## O=C(O)c1ccccc1-c1ccc(C=C2C(=O)N(c3ccccc3)C(=S)N(c3ccccc3)C2=O)o1
[1]
  EC50: > 300 µM (not active)
[2]
  EC50: > 300 µM (not active)
Genome polyprotein
  IC50: 12.3 µM (active)
[3]
  IC50: 105 µM (active)

## Cc1nc(N)c(C#N)c(-c2cccnc2)c1-c1ccccc1
Interleukin-8
  IC50: > 79 µM (inactive)

## C=CC(=O)/N=c1\sc2ccccc2n1-c1ccccc1
Paired box protein Pax-8
  AC50: 1.6 µM (active)
[4]
  IC50: 1.78 µM (active)
[5]
  IC50: 4.37 µM (active)

## COc1ccc(NC(=O)c2cc(-c3ccco3)nc3ccccc23)cn1
[6]
  IC50: 22.5 µM (active)
[7]
  IC50: 16.9 µM (active)

## Cc1ccc(C)c(S(=O)(=O)Nc2ccccc2C(=O)Nc2ccc(S(=O)(=O)Nc3ncccn3)cc2)c1
Genome polyprotein
  IC50: > 100 µM (active)

## Cc1ccc(-c2csc(NC(=O)c3ccccc3Cl)c2C(=O)O)cc1
[8]
  CC50: 19.4 µM (active)
[4]
  IC50: 1.58 µM (active)
[5]
  IC50: 2.27 µM (active)

## COc1cccc(CNC(=O)c2cccc(S(=O)(=O)N3CCN(C)CC3)c2)c1
[6]
  IC50: 8.69 µM (active)
[7]
  IC50: 5.44 µM (active)

## O=S(=O)(Nc1nc2ccccc2nc1N1CCc2ccccc2C1)c1ccc(Cl)cc1
Cysteine protease ATG4B
  IC50: 9.18 µM (active)
Phospholipase A2
  IC50: 10 µM (active)

## CCCCCCCCCCCCCCCC[N+](C)(C)CCl
[9]
  AC50: 5.15 µM (active)
Cysteine protease ATG4B
  IC50: 8.42 µM (active)
Phospholipase A2
  IC50: 8.15 µM (active)
[10]
  AC50: 5.5 µM (active)

## Nc1nc(N)nc(-c2ccc(Cl)cc2)n1
[11]
  AC50: 10.6 µM (active)
H4
  EC50: > 120 µM (not active)
[12]
  EC50: > 120 µM (not active)
[13]
  EC50: 12.2 µM (active)

## Cc1cccc(N2C(=O)/C(=C\c3ccc(OC(F)F)cc3)c3ccccc3C2=O)c1
[9]
  AC50: 4.43 µM (active)
CHO
  IC50: 40.4 µM (inactive)
Beta Lactamase
  IC50: 3.9 µM (active)

## O=C(Nc1cccc(Cl)c1N1CCCC1)c1cccc(-c2cc3ccccc3oc2=O)c1
[14]
  AC50: 0.262 µM (active)
Cysteine protease ATG4B
  IC50: 0.87 µM (active)
Phospholipase A2
  IC50: 0.978 µM (active)

## CN(Cc1ccc(Cl)c(Cl)c1)C(=O)C1=CC=CN2CCS(=O)(=O)N=C12
[6]
  IC50: 12.2 µM (active)
[7]
  IC50: 8.45 µM (active)

## O=C(N/N=C1/CCC/C1=C(/O)C(F)(F)F)c1ccccc1O
Streptococcus
  EC50: 2.75 µM (active)
[4]
  IC50: 3.57 µM (active)
[5]
  IC50: 2.27 µM (active)
[15]
  EC50: 1.44 µM (active)
